Experimental data from the supplement of paper PMC11061612.

Assays:
Assay in all cases: Bliss excess, mean over the matrix (fraction); higher = more synergy
G-361 (Melanoma) = system: G-361 (Melanoma)
Summary of the method: (§1)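 After 24 hours at 37°C and 5% CO2 in 1536-well plates, cells in DMEM/F12 or RPMI plus 10% FBS received two-drug dose matrices for 72 hours. Viability came from CellTiter-Glo 2.0 luminescence and was scaled as inhibition, anchored at 0 by vehicle wells and at 1 by blank wells. Combination Emax is taken as the second-highest inhibition in the matrix, and Bliss excess as the observed combination effect less EA + EB − EA·EB, with EA and EB the single-agent effects.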

[1] = system: SUP-B15 (B-Lymphoblastic Leukemia)
Summary of the method: as §1

[2] = system: SK-GT-2 (Gastric Carcinoma)
Summary of the method: as §1

[3] = system: HCC1187 (Breast Carcinoma)
Summary of the method: as §1

[4] = system: KY821 (Acute Myeloid Leukemia)
Summary of the method: as §1

[5] = system: PC-3 (Prostate Carcinoma)
Summary of the method: as §1

[6] = system: KMS-12-BM (Plasma Cell Myeloma)
Summary of the method: as §1

[7] = system: ESO51 (Esophageal Adenocarcinoma)
Summary of the method: as §1

[8] = system: ST486 (Burkitt's Lymphoma)
Summary of the method: as §1

[9] = system: SNU-398 (Hepatocellular Carcinoma)
Summary of the method: as §1

[10] = system: 8505C (Thyroid Gland Carcinoma)
Summary of the method: as §1

[11] = system: CHSA8926 (Chondrosarcoma)
Summary of the method: as §1

[12] = system: NCI-H520 (Squamous Cell Lung Carcinoma)
Summary of the method: as §1

[13] = system: CW-2 (Colorectal Carcinoma)
Summary of the method: as §1

[14] = system: NCI-H661 (Non-Small Cell Lung Carcinoma)
Summary of the method: as §1

NCI-H2731 (Mesothelioma) = system: NCI-H2731 (Mesothelioma)
Summary of the method: as §1

[15] = system: KP-3 (Pancreatic Carcinoma)
Summary of the method: as §1

[16] = system: NCI-H526 (Small Cell Lung Carcinoma)
Summary of the method: as §1

[17] = system: NCI-H929 (Plasma Cell Myeloma)
Summary of the method: as §1

[18] = system: NCI-H3122 (Lung Adenocarcinoma)
Summary of the method: as §1

Compound	Bliss excess (G-361 (Melanoma))	Bliss excess [1]	Bliss excess [2]	Bliss excess [3]	Bliss excess [4]	Bliss excess [5]	Bliss excess [6]	Bliss excess [7]	Bliss excess [8]	Bliss excess [9]	Bliss excess [10]	Bliss excess [11]	Bliss excess [12]	Bliss excess [13]	Bliss excess [14]	Bliss excess (NCI-H2731 (Mesothelioma))	Bliss excess [15]	Bliss excess [16]	Bliss excess [17]	Bliss excess [18]
CN(C)CCCOc1ccc(-c2ccc3ncc4c(c3c2)n(C2CCOCC2)c(=O)n4C)cn1 [AZD0156] + C=CCn1c(=O)c2cnc(Nc3ccc(N4CCN(C)CC4)cc3)nc2n1-c1cccc(C(C)(C)O)n1 [AZD1775] (first compound max 1 µM, partner max 1 µM)	-0.0556	0.0282	-0.0776	-0.0117	-0.0505	-0.0501	0.0744	0.0363	0.0097	-0.0887	-0.0492	-0.106	-0.0692	-0.0106	-0.0615	-0.0898	-0.0212	-0.0258	-0.0464	-0.0352
CN(C)CCCOc1ccc(-c2ccc3ncc4c(c3c2)n(C2CCOCC2)c(=O)n4C)cn1 [AZD0156] + CCN(CCO)CCCOc1ccc2c(Nc3cc(CC(=O)Nc4cccc(F)c4)[nH]n3)ncnc2c1 [AZD2811] (first compound max 1 µM, 7x7, partner max 1 µM)	-0.0148	-0.0595	-0.0156	-0.0596	0.147	-0.0243	0.13	-0.0147	-0.11	-0.0184	-0.0257	-0.0389	0.0012	-0.0163	-0.0304	-0.0279	-0.0417	0.0113	0.0125	-0.0048
CN(C)CCCOc1ccc(-c2ccc3ncc4c(c3c2)n(C2CCOCC2)c(=O)n4C)cn1 [AZD0156] + C[C@@H]1COCCN1C2=NC(=NC(=C2)C3(CC3)[S@](=N)(=O)C)C4=C5C=CNC5=NC=C4 [AZD6738] (first compound max 1 µM, 7x7, partner max 10 µM)	0.032	0.0247	0.0033	0.0161	0.0228	-0.0168	0.117	-0.0449	0.0016	-0.0039	0.0051	-0.0328	-0.0064	-0.0131	0.0059	-0.0532	-0.0325	-0.0051	-0.0182	0.0218
CN(C)CCCOc1ccc(-c2ccc3ncc4c(c3c2)n(C2CCOCC2)c(=O)n4C)cn1 [AZD0156] + O=C(c1cc(Cc2n[nH]c(=O)c3ccccc23)ccc1F)N1CCN(C(=O)C2CC2)CC1 [Olaparib] (first compound max 3 µM, partner max 3 µM)	0.0857	-0.0159	0.0292	0.0813	0.0829	-0.0088	0.0448	0.0292	0.24	0.0815	0.066	-0.0022	0.0671	-0.0031	0.0145	0.0068	-0.0305	0.167	0.016	-0.0062
C=CCn1c(=O)c2cnc(Nc3ccc(N4CCN(C)CC4)cc3)nc2n1-c1cccc(C(C)(C)O)n1 [AZD1775] + C1CN(CCC1(C(=O)N[C@@H](CCO)C2=CC=C(C=C2)Cl)N)C3=NC=NC4=C3C=CN4 [Capivasertib] (first compound max 3 µM, partner max 3 µM)	-0.0042	0.0073	0.0174	0.0216	0.0225	-0.0617	0.0629	-0.004	0.0215	0.0054	-0.101	0.0361	-0.0771	-0.0487	-0.0905	0.0078	0.0131	-0.06	-0.0234	-0.0298
C=CCn1c(=O)c2cnc(Nc3ccc(N4CCN(C)CC4)cc3)nc2n1-c1cccc(C(C)(C)O)n1 [AZD1775] + C[C@@H]1COCCN1C2=NC(=NC(=C2)C3(CC3)[S@](=N)(=O)C)C4=C5C=CNC5=NC=C4 [AZD6738] (first compound max 1 µM, partner max 10 µM)	-0.0177	0.0535	-0.0189	0.0558	0.0358	-0.0049	0.0418	-0.0247	-0.0044	-0.0067	-0.0076	-0.0268	-0.0133	0.0554	0.0157	0.0444	-0.0075	0.0576	-0.0042	0.0165
C=CCn1c(=O)c2cnc(Nc3ccc(N4CCN(C)CC4)cc3)nc2n1-c1cccc(C(C)(C)O)n1 [AZD1775] + O=C(c1cc(Cc2n[nH]c(=O)c3ccccc23)ccc1F)N1CCN(C(=O)C2CC2)CC1 [Olaparib] (first compound max 1 µM, partner max 10 µM)	-0.0217	-0.0148	-0.0139	0.0546	0.019	-0.0663	-0.0239	-0.0917	-0.0197	-0.0396	–	-0.0167	-0.0057	0.0127	-0.0179	-0.0438	-0.0118	-0.0152	-0.0525	-0.0111
CCN(CCO)CCCOc1ccc2c(Nc3cc(CC(=O)Nc4cccc(F)c4)[nH]n3)ncnc2c1 [AZD2811] + C=CCn1c(=O)c2cnc(Nc3ccc(N4CCN(C)CC4)cc3)nc2n1-c1cccc(C(C)(C)O)n1 [AZD1775] (first compound max 1 µM, partner max 1 µM)	-0.0162	0.044	0.0008	-0.0086	0.0868	-0.0117	0.122	-0.0002	-0.0925	0.0295	-0.0071	0.0032	-0.108	-0.0169	-0.0029	0.0089	-0.036	-0.0226	-0.0671	-0.0512
COc1nnc2ccc(N3CCC(c4ccc(OCCN5CCN(C)C(=O)[C@H]5C)cc4)CC3)nn12 [AZD5153] + CN(CC[C@H](CSC1=CC=CC=C1)NC2=C(C=C(C=C2)S(=O)(=O)NC(=O)C3=CC=C(C=C3)N4CCC(CC4)[C@H](C5=CC=CC=C5C6=CC=C(C=C6)Cl)O)S(=O)(=O)C(F)(F)F)CCO [AZD4320] (first compound max 1 µM, 7x7, partner max 1 µM)	0.0314	-0.0077	0.0412	0.0165	0.0111	0.0691	0.0143	-0.0079	–	-0.0093	0.0185	-0.0781	–	–	0.0102	–	–	–	–	–
Cc1c2c(nn1C)CSCc1cc(n(C)n1)CSc1cc(c3ccccc3c1)OCCCc1c(C(=O)O)n(C)c3c-2c(Cl)ccc13 [AZD5991] + C1CN(CCC1(C(=O)N[C@@H](CCO)C2=CC=C(C=C2)Cl)N)C3=NC=NC4=C3C=CN4 [Capivasertib] (first compound max 1 µM, 7x7, partner max 3 µM)	-0.0055	-0.0025	-0.0049	-0.0023	-0.0471	-0.0404	0.0127	-0.0239	–	0.034	-0.0111	0.0131	-0.0548	0.0132	0.0375	-0.0722	-0.0102	0.0139	-0.0168	0.0144
Cc1c2c(nn1C)CSCc1cc(n(C)n1)CSc1cc(c3ccccc3c1)OCCCc1c(C(=O)O)n(C)c3c-2c(Cl)ccc13 [AZD5991] + CN(C)CCCOc1ccc(-c2ccc3ncc4c(c3c2)n(C2CCOCC2)c(=O)n4C)cn1 [AZD0156] (first compound max 1 µM, 7x7, partner max 1 µM)	0.0371	-0.0117	0.0228	-0.0266	-0.0327	–	-0.0445	0.0193	-0.0716	-0.0018	-0.137	0.0117	-0.0011	0.0041	-0.0054	-0.0444	0.0077	0.0054	-0.0121	0.0187
CS(=O)(=O)CCNCc1ccc(-c2ccc3ncnc(Nc4ccc(OCc5cccc(F)c5)c(Cl)c4)c3c2)o1 [Lapatinib] + Cn1cnc2c(F)c(Nc3ccc(Br)cc3Cl)c(C(=O)NOCCO)cc21 [Selumetinib] (first compound max 10 µM, 7x7, partner max 10 µM)	–	–	–	–	–	–	–	–	0.0111	–	–	–	-0.034	0.003	–	-0.012	0.0488	0.0154	0.0271	0.0083
CS(=O)(=O)CCNCc1ccc(-c2ccc3ncnc(Nc4ccc(OCc5cccc(F)c5)c(Cl)c4)c3c2)o1 [Lapatinib] + NC1(c2ccc(-c3nc4ccn5c(=O)[nH]nc5c4cc3-c3ccccc3)cc2)CCC1 [MK-2206] (first compound max 10 µM, 7x7, partner max 10 µM)	–	–	–	–	0.0724	–	–	–	0.0266	–	–	–	0.0011	-0.0434	–	0.0201	-0.0194	0.0254	-0.0278	-0.0497
CCc1c2c(nc3ccc(O)cc13)-c1cc3c(c(=O)n1C2)COC(=O)[C@]3(O)CC [SN-38] + O=C(c1cc(Cc2n[nH]c(=O)c3ccccc23)ccc1F)N1CCN(C(=O)C2CC2)CC1 [Olaparib] (first compound max 0.3 µM, 7x7, partner max 10 µM)	0.0322	–	–	0.0419	0.0503	–	–	-0.0199	0.0826	0.0008	0.0498	0.0247	0.0654	0.0293	0.0696	0.0324	-0.0338	0.0278	0.0505	0.0685
CC(=O)Nc1cccc(-n2c(=O)n(C3CC3)c(=O)c3c(Nc4ccc(I)cc4F)n(C)c(=O)c(C)c32)c1 [Trametinib] + Cc1nc(-c2cn3c(n2)-c2ccc(-c4cnn(C(C)(C)C(N)=O)c4)cc2OCC3)n(C(C)C)n1 [Taselisib] (first compound max 1 µM, 7x7, partner max 10 µM)	0.0078	0.539	0.134	0.0462	-0.0601	-0.0138	0.103	0.0533	-0.033	0.0676	0.142	–	0.0256	0.122	0.115	0.0312	0.0777	-0.0308	0.0401	0.116
